From PMC7333345, “nanoDSF: In vitro Label-Free Method to Monitor Picornavirus Uncoating and Test Compounds Affecting Particle Stability” (Frontiers in Microbiology, 2020)

Biological target: T1, RV-A2 (native virion capsid; VP1 hydrophobic pocket) (rhinovirus A2, UniProt P04936)
T1 construct: native purified virion (propagated virus, monolithic chromatography); 60 copies each of VP1-VP4 cut from the genome polyprotein; VP4 68 aa; with Capsid protein VP2; Capsid protein VP3; Capsid protein VP4
Assay: nanoDSF (intrinsic tryptophan fluorescence, Em350/Em330 ratio)
Assay type: binding
Settings: 1 mM pleconaril, 2% DMSO, PBS, 1 °C/min, RV-A2 0.5 mg/ml (1 mg/ml in Figure 3 legend), whole virion, against DMSO control

T1 sequence (P04936 2-850): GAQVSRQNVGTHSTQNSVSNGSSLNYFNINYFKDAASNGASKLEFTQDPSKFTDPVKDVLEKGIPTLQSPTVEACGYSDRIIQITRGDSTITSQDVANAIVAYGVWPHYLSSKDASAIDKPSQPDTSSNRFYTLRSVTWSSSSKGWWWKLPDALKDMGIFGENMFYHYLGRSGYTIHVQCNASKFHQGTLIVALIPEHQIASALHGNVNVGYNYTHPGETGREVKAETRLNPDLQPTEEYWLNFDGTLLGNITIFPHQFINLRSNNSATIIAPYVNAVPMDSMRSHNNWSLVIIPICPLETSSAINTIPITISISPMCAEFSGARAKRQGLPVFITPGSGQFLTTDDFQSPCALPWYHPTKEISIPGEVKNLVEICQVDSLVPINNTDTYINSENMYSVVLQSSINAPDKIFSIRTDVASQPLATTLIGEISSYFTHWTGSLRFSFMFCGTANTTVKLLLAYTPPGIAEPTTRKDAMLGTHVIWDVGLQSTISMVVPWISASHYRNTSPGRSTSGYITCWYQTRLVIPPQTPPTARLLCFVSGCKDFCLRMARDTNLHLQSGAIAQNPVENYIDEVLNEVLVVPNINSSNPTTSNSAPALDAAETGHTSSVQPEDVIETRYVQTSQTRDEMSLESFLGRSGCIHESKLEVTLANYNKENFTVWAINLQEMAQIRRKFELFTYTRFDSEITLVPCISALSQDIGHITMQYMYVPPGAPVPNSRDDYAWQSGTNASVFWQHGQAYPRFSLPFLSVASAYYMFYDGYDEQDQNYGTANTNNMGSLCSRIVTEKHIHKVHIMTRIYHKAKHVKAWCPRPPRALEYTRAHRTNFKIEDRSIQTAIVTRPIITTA

Cc1cc(CCCOc2c(C)cc(-c3noc(C(F)(F)F)n3)cc2C)on1 [pleconaril] was tested, and the “shift of TA (50% N to A particle conversion)” value was 5 °C.
